US11214538B2, “Farnesoid X receptor agonists and uses thereof” (Metacrine, Inc., priority 2015, dated 2022)
pEC50: −log10 of the molar value.

What follows are compounds tested against T1, hFXR (Homo sapiens, UniProt Q96RI1) (assay: In Vitro FXR Assay (TK), luciferase reporter in transfected CV-1 cells). Settings: CV-1 cells transfected with hFXR, hRXR, TK-ECRE-luc; 18 hrs incubation; luminescence; compounds with a maximum efficacy of <25% of the Fexaramine control classified as '+'.
T1 construct: expressed in transfected cells; host or cells: CV-1 cells
T1 sequence (Q96RI1 1-486): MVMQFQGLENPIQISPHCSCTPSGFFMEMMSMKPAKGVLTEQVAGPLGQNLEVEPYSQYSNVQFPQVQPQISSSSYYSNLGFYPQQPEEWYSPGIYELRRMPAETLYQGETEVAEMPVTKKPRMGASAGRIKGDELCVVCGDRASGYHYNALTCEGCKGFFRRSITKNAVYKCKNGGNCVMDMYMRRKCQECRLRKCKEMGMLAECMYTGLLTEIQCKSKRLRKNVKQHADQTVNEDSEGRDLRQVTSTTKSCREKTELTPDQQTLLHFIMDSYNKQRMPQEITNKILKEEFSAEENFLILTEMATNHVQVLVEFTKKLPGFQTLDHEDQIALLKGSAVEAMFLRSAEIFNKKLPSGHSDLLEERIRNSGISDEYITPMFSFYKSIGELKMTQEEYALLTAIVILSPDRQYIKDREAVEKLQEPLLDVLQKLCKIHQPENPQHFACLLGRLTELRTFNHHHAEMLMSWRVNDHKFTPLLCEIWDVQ
T1 sequence (P19793 1-462 partner): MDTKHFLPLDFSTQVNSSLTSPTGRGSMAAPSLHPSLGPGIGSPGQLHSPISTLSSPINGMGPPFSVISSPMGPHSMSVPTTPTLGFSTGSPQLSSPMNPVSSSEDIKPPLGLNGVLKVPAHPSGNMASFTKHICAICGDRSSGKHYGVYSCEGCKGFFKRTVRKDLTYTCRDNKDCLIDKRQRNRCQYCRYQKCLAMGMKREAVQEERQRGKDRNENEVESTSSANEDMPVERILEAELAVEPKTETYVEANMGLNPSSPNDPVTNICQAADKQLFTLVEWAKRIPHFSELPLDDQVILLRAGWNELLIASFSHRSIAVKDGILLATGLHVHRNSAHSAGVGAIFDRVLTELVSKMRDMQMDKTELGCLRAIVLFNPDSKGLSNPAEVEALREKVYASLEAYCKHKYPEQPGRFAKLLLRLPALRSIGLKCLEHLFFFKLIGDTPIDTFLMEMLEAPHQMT
Type: cell-based
Method: Example B-2: In Vitro FXR Assay (TK)
CV-1 cells were seeded at a density of 2,000,000 cells in a T175 flask with DMEM+10% charcoal double-stripped FBS and incubated at 37° C. in 5% CO2 for 18 h (O/N).
After 18 h of incubation, the medium in the T175 flask was changed with fresh DMEM+10% charcoal super-stripped serum. In a polypropylene tube, 2500 μL OptiMEM (Life Technologies, Cat #31985-062) was combined with expression plasmids for hFXR, hRXR, TK-ECRE-luc and pCMX-YFP. The tube was then briefly vortexed and incubated at room temperature for 5 minutes. Transfection reagent (X-tremeGENE HP from Roche, Cat #06 366 236 001) was added to the OptiMEM/plasmid mixture vortexed and incubated at room temperature for 20 minutes. Following incubation, the transfection reagent/DNA mixture complex was added to cells in the T175 flask and the cells were incubated at 37° C. in 5% CO2 for 18 h (O/N).
Compounds were serially diluted in DMSO and added to transfected CV-1 cells. The cells were then incubated for 18 hrs. The next day cells were lysed and examined for luminescence.

| Compound | pEC50 |
| --- | --- |
| CN(C)c1ccc(-c2ccc(CN(C(=O)C3CCCCC3)c3cccc(/C=C/c4ccccn4)c3)cc2)cc1 [Compound 27, (E)-N-((4′-(Dimethylamino)-[1,1′-biphenyl]-4-yl)methyl)-N-(3-(2-(pyridin-2-yl)vinyl)phenyl)cyclohexanecarboxamide] | ≥ 5.52 |
| COCC1CCN(c2cccc(N(C[C@H]3CC[C@H](c4ccc(OC)c(C)c4)CC3)C(=O)[C@H]3CC[C@H](O)CC3)c2)C1 (stereo partly drawn) [Compound 48, trans-4-Hydroxy-N-((trans-4-(4-methoxy-3-methylphenyl)cyclohexyl)methyl)-N-(3-(3-(methoxymethyl)pyrrolidin-1-yl)phenyl)cyclohexanecarboxamide] | 5.00 to 5.52 |
| Cc1cncc(-c2cccc(N(Cc3ccc(-c4ccc(N(C)C)cc4)cc3)C(=O)C3CCCCC3)c2)c1 [Compound 24, N-((4′-(Dimethylamino)-[1,1′-biphenyl]-4-yl)methyl)-N-(3-(5-methylpyridin-3-yl)phenyl)cyclohexanecarboxamide] | 5.00 to 5.52 |
| COc1ccc([C@H]2CC[C@H](CN(c3cccc(N4CCC(OC)C4)c3)C(=O)[C@H]3CC[C@H](O)CC3)CC2)cc1C (stereo partly drawn) [Compound 47, trans-4-Hydroxy-N-((trans-4-(4-methoxy-3-methylphenyl)cyclohexyl)methyl)-N-(3-(3-methoxypyrrolidin-1-yl)phenyl)cyclohexanecarboxamide] | 5.00 to 5.52 |
| COc1ncc(-c2cccc(N(Cc3ccc(-c4ccc(N(C)C)cc4)cc3)C(=O)C3CCCCC3)c2)s1 [Compound 29, N-((4′-(Dimethylamino)-[1,1′-biphenyl]-4-yl)methyl)-N-(3-(2-methoxythiazol-5-yl)phenyl)cyclohexanecarboxamide] | ≥ 5.52 |
| CN(C)c1ccc(-c2ccc(CN(C(=O)C3CCCCC3)c3cccc(-c4cc(=O)n(C)s4)c3)cc2)cc1 [Compound 44, N-((4′-(Dimethylamino)-[1,1′-biphenyl]-4-yl)methyl)-N-(3-(2-methyl-3-oxo-2,3-dihydroisothiazol-5-yl)phenyl)cyclohexanecarboxamide] | ≥ 5.52 |
| CN(C)c1ccc(-c2ccc(CN(C(=O)C3CCCCC3)c3cccc(CCc4ncco4)c3)cc2)cc1 [Compound 22, N-((4′-(Dimethylamino)-[1,1′-biphenyl]-4-yl)methyl)-N-(3-(2-(oxazol-2-yl)ethyl)phenyl)cyclohexanecarboxamide] | ≥ 5.52 |
| COc1cc(-c2cccc(N(Cc3ccc(-c4ccc(N(C)C)cc4)cc3)C(=O)C3CCCCC3)c2)ncn1 [Compound 35, N-((4′-(Dimethylamino)-[1,1′-biphenyl]-4-yl)methyl)-N-(3-(6-methoxypyrimidin-4-yl)phenyl)cyclohexanecarboxamide] | ≥ 5.52 |

Next, values leading:

| pEC50 | Compound |
| --- | --- |
| ≥ 5.52 | COc1ccc([C@H]2CC[C@H](CN(c3cccc(N4CC(OC)C4)c3)C(=O)[C@H]3CC[C@H](O)CC3)CC2)cc1C [Compound 45, trans-4-Hydroxy-N-((trans-4-(4-methoxy-3-methylphenyl)cyclohexyl)methyl)-N-(3-(3-methoxyazetidin-1-yl)phenyl)cyclohexanecarboxamide] |
| 5.00 to 5.52 | CCc1cncc(-c2cccc(N(Cc3ccc(-c4ccc(N(C)C)cc4)cc3)C(=O)C3CCCCC3)c2)c1 [Compound 33, N-((4′-(Dimethylamino)-[1,1′-biphenyl]-4-yl)methyl)-N-(3-(5-ethylpyridin-3-yl)phenyl)cyclohexanecarboxamide] |
| ≥ 5.52 | COCC1CN(c2cccc(N(C[C@H]3CC[C@H](c4ccc(OC)c(C)c4)CC3)C(=O)[C@H]3CC[C@H](O)CC3)c2)C1 [Compound 46, trans-4-Hydroxy-N-((trans-4-(4-methoxy-3-methylphenyl)cyclohexyl)methyl)-N-(3-(3-(methoxymethyl)azetidin-1-yl)phenyl)cyclohexanecarboxamide] |
| ≥ 5.52 | COc1ccc([C@H]2CC[C@H](CN(c3cccc(N4CCC(OC)CC4)c3)C(=O)[C@H]3CC[C@H](O)CC3)CC2)cc1C [Compound 49, trans-4-Hydroxy-N-((trans-4-(4-methoxy-3-methylphenyl)cyclohexyl)methyl)-N-(3-(4-methoxypiperidin-1-yl)phenyl)cyclohexanecarboxamide] |
| 5.00 to 5.52 | CN(C)c1ccc(-c2ccc(CN(C(=O)C3CCCCC3)c3cccc(/C=C/c4ccncc4)c3)cc2)cc1 [Compound 28, (E)-N-((4′-(Dimethylamino)-[1,1′-biphenyl]-4-yl)methyl)-N-(3-(2-(pyridin-4-yl)vinyl)phenyl)cyclohexanecarboxamide] |
| ≥ 5.52 | COc1ccc(-c2cccc(N(Cc3ccc(-c4ccc(N(C)C)cc4)cc3)C(=O)C3CCCCC3)c2)s1 [Compound 31, N-((4′-(Dimethylamino)-[1,1′-biphenyl]-4-yl)methyl)-N-(3-(5-methoxythiophen-2-yl)phenyl)cyclohexanecarboxamide] |
| ≥ 5.52 | COc1ccc(-c2cccc(N(Cc3ccc(-c4ccc(N(C)C)cc4)cc3)C(=O)C3CCCCC3)c2)cc1 [Compound 3.1, N-((4′-(Dimethylamino)-[1,1′-biphenyl]-4-yl)methyl)-N-(4′-methoxy-[1,1′-biphenyl]-3-yl)cyclohexanecarboxamide] |
| ≥ 5.52 | COc1cc(-c2cccc(N(Cc3ccc(-c4ccc(N(C)C)cc4)cc3)C(=O)C3CCCCC3)c2)sn1 [Compound 43, N-((4′-(Dimethylamino)-[1,1′-biphenyl]-4-yl)methyl)-N-(3-(3-methoxyisothiazol-5-yl)phenyl)cyclohexanecarboxamide] |
| 5.00 to 5.52 | CN(C)c1ccc(-c2ccc(CN(C(=O)C3CCCCC3)c3cccc(-c4cccnc4)c3)cc2)cc1 [Compound 23, N-((4′-(Dimethylamino)-[1,1′-biphenyl]-4-yl)methyl)-N-(3-(pyridin-3-yl)phenyl)cyclohexanecarboxamide] |
